One series relates to tumors. As to conditions: cited from earlier work.
Series [1] deals with T1, Poly(ADP-ribose) synthetase (Bos taurus, UniProt P18493).
T1 construct: Poly (ADP-ribose) synthetase from calf thymus; from tissue; host or cells: calf thymus
Description: Inhibition of Poly(ADP-ribose) synthetase. It is filed as biochemical, calf.
Description: The enzyme assay is performed by placing the following in small glass tubes kept at 4°: 100 μl of buffer consisting of 0.5M Tris-HCl pH 8.0, 50 mM MgCl2, and 5 mM dithiothreitol; 50 μl of 1 mM [^3 H]nicotinamide adenine dinucleotide having a specific activity of 15 μCi/μmol; 100 μl of calf thymus DNA (0.3 mg/ml in water); 50 μl of calf thymus histone (Sigma, Type IIA, 0.5 mg/ml); 50 μl of inhibitor or inhibitor solvent; 150 μl of enzyme. The components are thoroughly mixed and warmed to 30° C. in a water bath. After 15 minutes the reaction is stopped by adding 2 ml of ice cold 15% trichloroacetic acid and the tubes are placed on ice for 15 minutes. The precipitate is collected on glass fiber filters and washed five times with ice cold 15% trichloroacetic acid. The filters were dried and radioactivity determined in a liquid scintillation counter.

In another series the test system is L1210 cells. Description: Inhibition of the repair of radiation-induced DNA damage as assessed by alkaline elution. It is filed as cell-based. Here is the method: Inhibition of the Repair of Radiation-Induced DNA Damage as Assessed by Alkaline Elution The basic alkaline elution assay is carried out according to the procedure of K. W. Kohn, […]. Erickson, and L. A. Zwelling in DNA Repair: A Laboratory Manual of Research Procedures (eds. E. C. Freidburg and […]) with slight modifications. Briefly, suspension cultures of exponentially growing L1210 cells (total of 4×10^6 cells) are labeled with 0.02 μCi/ml of [^14 C] thymidine plus 1 nmol/ml of unlabeled thymidine for 24 hours prior to use. L1210 cells used as an internal standard are grown in media supplemented with 0.1 μCi/ml of [^3 H]thymidine and 1 nmol/ml unlabeled thymidine. For the elution protocol cells are removed from the culture flasks, centrifuged, and resuspended in fresh media. Drug treatment for experimental cells is for one hour at 37°. After the treatment period control and drug-treated cells are given a dose of 10 Gy of x-rays and incubated at 37° C. for 10 minutes to allow for repair. Samples consisting of 5×10^5 cells contained in 5 ml of ice cold PBS are deposited directly on 25 mm polycarbonate filters (2 micron pore size). The cells are washed with 5 ml of cold PBS, then lysed by the addition of 5 ml of lysis solution (0.2% SDS, 0.25M tetrasodium EDTA pH 9.7). All procedures commencing at the time of lysis are carried out in the dark. Subsequent to lysis samples are treated with 2 ml of lysis solution containing proteinase-K (0.5 mg/ml) for one hour. The filters are then eluted with tetrapropyl ammonium hydroxide/0.025M EDTA (free acid form)/0.1% SDS, pH 12.1, at a constant flow rate of 0.037 ml/min. Fractions of 2 ml are collected in scintillation vials. […] To each fraction collected and the filter solution 15 ml of modified Ready-Gel scintillation fluid containing 0.7% acetic acid is added. The frequency of single-stranded DNA breakage was calculated as described by Kohn, et al. The data is corrected for the number of single-strand breaks in the […] samples (~20%).

The subject of the next series is KHT fibrosarcoma tumors. Description: In vivo assay for radiosensitization activity. Details: species or system hybrid mice (B6C3F1). The following applies: for In Vivo Radiosensitizing Activity: KHT tumors in mice, relative to misonidazole. Here is the method: In Vivo Assay for Radiosensitization Activity
For this assay KHT fibrosarcoma tumors in hybrid mice (B6C3F1) weighing 20-25 g are used. The mice are randomized and implanted SC with the appropriate tumor brei on Day 0 (one implant/mouse). Samples from each donor tumor and/or from the final brei are incubated in thioglycolate media as a check for gross bacterial contamination. On Day 8 tumors are measured in two dimensions with calipers and animals with tumor masses in the range of 500 to 700 mg are selected for the assay. At this point the tumors contain approximately 20% hypoxic cells.
The test agents are dissolved in any of several vehicles at a fixed injection dose equal to 90-100% of the maximum tolerated dose. Additional suitable controls of test compound (no irradiation) and vehicle-injected and irradiated mice are also included. Mice are irradiated at a dose of 1700 RADs at various intervals both prior to and after intraperitoneal administration of the test agents.
By using these intervals, an indication of both the optimum time to irradiate and the degree of sensitization are obtained. Irradiation of the KHT tumors is by whole body irradiation of animals in movement restricting jigs at different total exposures as indicated. The x-ray source is a Phillips 320 KV instrument with a half-value thickness of 2.0 mm copper and a target to source distance of 17 inches, with a delivery rate of 2.0 Gy/minute. Animals are monitored for signs of acute toxicity after treatment.
After incubation for 12-16 days at 37° and staining, the colonies are counted. The data are expressed as % control versus time.

In another series the test system is V79 cells. Description: In vitro radiosensitizing activity at 37°: shoulder modifying effects (reduction in Dq). The following applies: for Shoulder Modification (% Reduction in DQ): hypoxic V79 cells, class symbols. Format: cell-based. Here is the method:
The shoulder region represents the inherent repair capabilities of a given cell line. […] To determine the hypoxic x-ray dose response, cells are rendered hypoxic four hours prior to the addition of the test compound by placing them in a 37° C. incubator within an anaerobic glove chamber (Forma). […] Drug is added (0.1 ml into 2 ml media in petri dish) within the anaerobic chamber and drug treatment is at the highest nontoxic dose for one hour at 37°. The oxic x-ray dose response is determined in a similar manner except that all manipulations are carried out in air. […] Cytotoxicity controls (drug only, no irradiation) are included as well as oxic and hypoxic untreated controls (irradiation only, no drug). Immediately following irradiation, cells are rinsed twice with 2 ml fresh media prior to the addition of 5 ml of fresh media. The cells are then incubated at 37° C. After six days, dishes are stained with crystal violet and colonies of 50 or more cells are counted to determine percent surviving cells versus x-ray dose. […] This is expressed by percent reduction in Dq where Dq is defined as the dose at the intersection of the regression line for the logarithmic portion of the survival curve with the 100% survival level. This is taken to represent the width of the shoulder region of the survival curve.

For series [2] the following is noted: cited from earlier work; for peripheral neuropathy and convulsions: mice.
A further series deals with hypoxic tumor cells. As to conditions: cited from earlier work.
Series [3] addresses T1, Poly(ADP-ribose) synthetase. The following applies: cited from earlier work.
The subject of series [4] is cells exposed to radiation. The following applies: cited from earlier work.
Setting [5] is: L1210 cells, 10 Gy x-rays, class symbols.
Where [6] appears, read: 30° C., 15 minutes, [3H]NAD, read-out: IC50.

Entries after “also recorded” stand apart in the source; their conditions may differ. Where two headings read alike, the source gives them in different places.

Usually IC50 stands for the midpoint of a concentration-inhibition curve.

T1 sequence (P18493 whole entry): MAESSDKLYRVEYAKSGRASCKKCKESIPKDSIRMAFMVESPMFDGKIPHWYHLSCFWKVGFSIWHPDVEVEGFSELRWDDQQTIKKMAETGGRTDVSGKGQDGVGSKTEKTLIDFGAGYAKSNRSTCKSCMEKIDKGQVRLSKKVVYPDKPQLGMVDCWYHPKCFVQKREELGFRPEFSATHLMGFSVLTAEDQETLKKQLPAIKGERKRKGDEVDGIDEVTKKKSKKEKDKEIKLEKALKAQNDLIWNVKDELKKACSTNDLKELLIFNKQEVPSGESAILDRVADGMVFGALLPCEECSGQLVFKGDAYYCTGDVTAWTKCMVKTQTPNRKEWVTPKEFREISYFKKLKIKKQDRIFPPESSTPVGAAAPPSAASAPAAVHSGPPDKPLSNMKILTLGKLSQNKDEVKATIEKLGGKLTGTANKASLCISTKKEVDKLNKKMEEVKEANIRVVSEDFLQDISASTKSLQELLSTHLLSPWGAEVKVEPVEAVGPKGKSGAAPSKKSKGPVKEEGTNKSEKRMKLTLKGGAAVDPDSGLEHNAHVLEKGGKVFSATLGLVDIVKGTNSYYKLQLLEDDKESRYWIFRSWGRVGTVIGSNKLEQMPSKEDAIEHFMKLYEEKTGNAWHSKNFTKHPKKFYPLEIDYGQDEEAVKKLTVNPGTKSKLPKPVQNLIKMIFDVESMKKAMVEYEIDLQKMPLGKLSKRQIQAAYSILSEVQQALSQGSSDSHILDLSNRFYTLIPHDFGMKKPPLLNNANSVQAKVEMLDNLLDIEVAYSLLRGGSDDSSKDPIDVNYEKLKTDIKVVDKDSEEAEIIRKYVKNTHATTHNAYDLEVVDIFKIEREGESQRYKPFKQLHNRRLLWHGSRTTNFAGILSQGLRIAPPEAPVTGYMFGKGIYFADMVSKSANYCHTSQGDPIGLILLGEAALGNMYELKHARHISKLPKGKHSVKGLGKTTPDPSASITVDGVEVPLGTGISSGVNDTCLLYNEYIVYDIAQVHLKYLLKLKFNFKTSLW

Regarding `CNC=O` [N-methylformamide], the “sensitization of tumors to radiation” value with tumors is “sensitize tumors to the lethal effects of radiation”.

In the case of `Cc1cccc2c1CCNC2=O` [Example XII, 3,4-Dihydro-5-methyl-1(2H)-isoquinolinone], half-maximal inhibition in series [1] (IC50) was put at 160 nM. Besides, the entries for the “Frequency of Unrepaired Strand Breaks” value in the series on L1210 cells (setting [5]) and in the series with L1210 cells (numeric) were “++++ (401-500)” and 470 Rad. Eq, respectively. In the series with KHT fibrosarcoma tumors, the “In Vivo Radiosensitizing Activity” value is recorded as “+”. Further, the “Enhancement Ratio (in vivo)” value with KHT fibrosarcoma tumors (in vivo) was 1.4-1.5. The Optimum time preirradiation in the series with KHT fibrosarcoma tumors (time of administration before irradiation) is 2 to 3 h. Also, the “Shoulder Modification (% Reduction in DQ)” value in the series with V79 cells is given as “++ (30-44%)”. The “% Reduction in Dq (37°)” value in the series on V79 cells (numeric) came to 30%.

`Oc1cccc2c(O)nccc12` [Example I, 1,5-Dihydroxyisoquinoline]: the IC50 in series [1] (setting [6]) is 140 nM. Also, in the series with L1210 cells (setting [5]), the “Frequency of Unrepaired Strand Breaks” value is “+ (101-200)”. Moreover, in the series with KHT fibrosarcoma tumors, the “In Vivo Radiosensitizing Activity” value is listed as “+”. Moreover, the “Shoulder Modification (% Reduction in DQ)” value in the series on V79 cells is listed as “- (1-14%)”.

Regarding `O=C1NCCc2c(O)cccc21` [Example II, 3,4-Dihydro-5-hydroxy-1(2H)-isoquinolinone], the IC50 in series [1] (setting [6]) amounted to 100 nM. Further, the “Frequency of Unrepaired Strand Breaks” value in the series on L1210 cells (setting [5]) is “++ (201-300)”. In addition, the “In Vivo Radiosensitizing Activity” value in the series with KHT fibrosarcoma tumors is “+”. Besides, the “Shoulder Modification (% Reduction in DQ)” value in the series on V79 cells is “+ (15-29%)”.

Turning to `COCC(O)Cn1ccnc1[N+](=O)[O-]` (stereo not drawn) [misonidazole, α-(methoxymethyl)-2-nitro-1H-imidazole-1-ethanol], the CNS side effects entry in series [2] (administered to mice) was “serious adverse CNS side effects”. In series [2], the “peripheral neuropathy and convulsions” value was “peripheral neuropathy effects and convolusions in mice”. In addition, the “CNS toxicity, use in humans” value in series [2] (use in humans) is “limiting factor for their use in humans”. In addition, the “radiosensitizing activity” value with hypoxic tumor cells is listed as “of value as a radio-sensitizer for hypoxic tumor cells; also recorded: effective as radiosensitizers for hypoxic cells in vivo”.

In the case of `Cc1ncc([N+](=O)[O-])n1CCO` [metronidazole, 2-methyl-5-nitro-1H-imidazole-1-ethanol], the “peripheral neuropathy and convulsions” value in series [2] was “peripheral neuropathy effects and convolusions in mice”. Besides, in [2] (mouse, in vivo), the CNS side effects result is on record as “serious adverse CNS side effects” and the “CNS toxicity, use in humans” value was “limiting factor for their use in humans”. In addition, the “radiosensitizing activity” value in the series with hypoxic tumor cells was “effective as radiosensitizers for hypoxic cells in vivo; also recorded: active both in vitro and in vivo as a radiosensitizer”.

As to `NC(=O)c1cccc(N)c1` [3-aminobenzamide], in series [3], the “inhibition of poly(ADP-ribose)synthetase” value is “previously known best inhibitor of poly(ADP-ribose)synthetase”. In addition, the “killing of cells by DNA-damaging agents” value in [4] (certain cell lines) is “enhanced killing of these cells by the damaging agents”. Also, in series [4], the “inhibition of postirradiation repair” value is on record as “inhibit this postirradiation repair process, thereby sensitizing cells to the lethal effects of radiation; also recorded: inhibited”. Besides, the “reduction of Dq” value in the series with V79 cells is “does not reduce Dq”.
